Data from US9708314B2, “Heterocyclic amide compound” (NISSAN CHEMICAL INDUSTRIES, LTD., priority 2013, dated 2017).

Tests used:
Type in all cases: in vivo
Zea mays = experiment: Test Example 4: effect on crop by application to foliage (diluvial soil, plastic box)
Summary of the method: (§1)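 Seeds sown in sterilized diluvial soil, covered ~1.5 cm, grown 14 days in greenhouse at 25° C. to 30° C. Emulsion formulation diluted in water to set rate (g/ha) and sprayed onto stems and leaves. Effect scored visually 3 weeks later on 0–5 scale (5 = ≥90% herbicidal ratio, 0 = ≤5%).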

Glycine max = experiment: as above
Summary of the method: as §1

[1] = tested on: Beta vulgaris ssp. vulgaris; experiment: as above
Summary of the method: as §1

[2] = tested on: directly sowed Oryza sativa; experiment: as above
Summary of the method: as §1

Triticum aestivum = experiment: as above
Summary of the method: as §1

Brassica campestris L. = experiment: as above
Summary of the method: as §1

Setaria viridis = experiment: Test Example 4: herbicidal effect by application to foliage (diluvial soil, plastic box)
Summary of the method: as §1

Avena fatua = experiment: as above
Summary of the method: as §1

Chenopodium album = experiment: as above
Summary of the method: as §1

Galium spurium = experiment: as above
Summary of the method: as §1

Lolium multiflorum Lam. = experiment: as above
Summary of the method: as §1

Digitaria ciliaris = experiment: as above
Summary of the method: as §1

Alopecurus myosuroides = experiment: as above
Summary of the method: as §1

Veronica persica = experiment: as above; settings: Application herbicide amount 320 g/ha
Summary of the method: as §1

[3] = tested on: Echinochloa crus-galli var. crus-galli; experiment: as above
Summary of the method: as §1

Abutilon theophrasti = experiment: as above
Summary of the method: as §1

Apera spica-venti. = experiment: as above
Summary of the method: as §1

[4] = tested on: Echinochloa crus-galli var. crus-galli; experiment: Test Example 3: herbicidal effect by application to foliage (Wagner pot, water depth 0.1-0.5 cm); settings: Nineteenth Table; application to foliage; application herbicide amount 320 g/ha
Summary of the method: (§2)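 Rice-field weeds and directly sown rice were grown 14 days in flooded alluvial soil (water depth 0.1–0.5 cm) at 25–30 °C in a greenhouse. An emulsion formulation diluted to the stated g/ha rate was sprayed onto stems and leaves. Effects were scored on a 0–5 scale (herbicidal ratio bands) three weeks after treatment.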

Leptochloa chinensis = experiment: as above; settings: Nineteenth Table; application to foliage; application herbicide amount 320 g/ha
Summary of the method: as §2

Amaranthus retroflexus = experiment: Test Example 4: herbicidal effect by application to foliage (diluvial soil, plastic box); settings: application to foliage, application herbicide amount 320 g/ha
Summary of the method: as §1

[5] = Application herbicide amount 320 g/ha, effect on crop
[6] = Application herbicide amount 320 g/ha
[7] = application to foliage, application herbicide amount 320 g/ha

Cc1nnc(NC(=O)c2ccc(C(F)(F)F)n3c(CC(=O)NC(C)C)nnc23)o1 [1-061]
b (Zea mays; [5]): 1 (Herbicidal ratio of 5% or more and less than 20%) | c (Glycine max; [5]): 1 (Herbicidal ratio of 5% or more and less than 20%) | f [1, 5]: 4 (Herbicidal ratio of 70% or more and less than 90%) | d [2, 5]: 4 (Herbicidal ratio of 70% or more and less than 90%) | e (Triticum aestivum; [5]): 0 (Herbicidal ratio of 5% or less (almost no effect)) | g (Brassica campestris L.; [5]): 4 (Herbicidal ratio of 70% or more and less than 90%) | G (Setaria viridis; [6]): 3 (Herbicidal ratio of 40% or more and less than 70%) | I (Avena fatua; [6]): 3 (Herbicidal ratio of 40% or more and less than 70%) | O (Chenopodium album; [6]): 5 (Herbicidal ratio of 90% or more (almost completely withered)) | Q (Galium spurium; [6]): 4 (Herbicidal ratio of 70% or more and less than 90%) | K (Lolium multiflorum Lam.; [6]): 1 (Herbicidal ratio of 5% or more and less than 20%) | F (Digitaria ciliaris; [6]): 3 (Herbicidal ratio of 40% or more and less than 70%) | J (Alopecurus myosuroides; [6]): 1 (Herbicidal ratio of 5% or more and less than 20%) | R (Veronica persica): 5 (Herbicidal ratio of 90% or more (almost completely withered)) | H [3, 6]: 4 (Herbicidal ratio of 70% or more and less than 90%) | M (Abutilon theophrasti; [6]): 5 (Herbicidal ratio of 90% or more (almost completely withered)) | L (Apera spica-venti.; [6]): 1 (Herbicidal ratio of 5% or more and less than 20%) | H (herbicidal effect grade) [4]: 5 (Herbicidal ratio of 90% or more (almost completely withered)) | D (herbicidal effect grade) (Leptochloa chinensis): 4 (Herbicidal ratio of 70% or more and less than 90%)

CN(CCC#N)c1nnc2c(C(=O)Nc3nnco3)ccc(C(F)(F)F)n12 [1-164]
c: effect on crop, Zea mays (Zea mays; [7]): 0 (Herbicidal ratio of 5% or less (almost no effect)) | d: effect on crop, Glycine max (Glycine max; [7]): 5 (Herbicidal ratio of 90% or more (almost completely withered)) | f: effect on crop, Beta vulgaris ssp. vulgaris [1, 7]: 5 (Herbicidal ratio of 90% or more (almost completely withered)) | b: effect on crop, directly sowed Oryza sativa [2, 7]: 4 (Herbicidal ratio of 70% or more and less than 90%) | e: effect on crop, Triticum aestivum (Triticum aestivum; [7]): 3 (Herbicidal ratio of 40% or more and less than 70%) | g: effect on crop, Brassica campestris L. (Brassica campestris L.; [7]): 4 (Herbicidal ratio of 70% or more and less than 90%) | G: herbicidal effect on Setaria viridis (Setaria viridis; [7]): 5 (Herbicidal ratio of 90% or more (almost completely withered)) | I: herbicidal effect on Avena fatua (Avena fatua; [7]): 3 (Herbicidal ratio of 40% or more and less than 70%) | N: herbicidal effect on Amaranthus retroflexus (Amaranthus retroflexus): 5 (Herbicidal ratio of 90% or more (almost completely withered)) | O: herbicidal effect on Chenopodium album (Chenopodium album; [7]): 5 (Herbicidal ratio of 90% or more (almost completely withered)) | Q: herbicidal effect on Galium spurium (Galium spurium; [7]): 4 (Herbicidal ratio of 70% or more and less than 90%) | K: herbicidal effect on Lolium multiflorum Lam. (Lolium multiflorum Lam.; [7]): 1 (Herbicidal ratio of 5% or more and less than 20%) | F: herbicidal effect on Digitaria ciliaris (Digitaria ciliaris; [7]): 5 (Herbicidal ratio of 90% or more (almost completely withered)) | J: herbicidal effect on Alopecurus myosuroides (Alopecurus myosuroides; [7]): 1 (Herbicidal ratio of 5% or more and less than 20%) | H: herbicidal effect on Echinochloa crus-galli var. crus-galli [3, 7]: 5 (Herbicidal ratio of 90% or more (almost completely withered)) | M: herbicidal effect on Abutilon theophrasti (Abutilon theophrasti; [7]): 4 (Herbicidal ratio of 70% or more and less than 90%) | L: herbicidal effect on Apera spica-venti. (Apera spica-venti.; [7]): 3 (Herbicidal ratio of 40% or more and less than 70%) | H (herbicidal effect grade) [4]: 5 (Herbicidal ratio of 90% or more (almost completely withered)) | D (herbicidal effect grade) (Leptochloa chinensis): 5 (Herbicidal ratio of 90% or more (almost completely withered))
